Where two headings read alike, the source gives them in different places.
Assays:
KRAS-WT = KRAS-WT (Homo sapiens, UniProt P01116); test: SOS-catalyzed nucleotide exchange assay (Procedure A, TR-FRET), KRAS-WT; assay type: biochemical
Method in brief: (§1)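 Biotinylated RAS (KRAS-G12C carries C51S/C80L/C118S; others WT background) preloaded with Bodipy-GDP plus Tb-streptavidin, preincubated with compound 60 min at RT, then human SOS and 3 mM GTP added. Final RAS/SOS: G12C 3 nM/40 nM, 60 min; WT 1 nM/40 nM, 60 min; G12V 1.25 nM/160 nM, 90 min; NRAS 1.25 nM/40 nM, 60 min. TR-FRET 520/495 ratio normalized to DMSO and saturating inhibitor; 10-point curves fit four-parameter logistic.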

KRAS-G12D = KRAS-G12D (Homo sapiens, UniProt P01116, G12D); test: SOS-catalyzed nucleotide exchange assay (Procedure A, TR-FRET), KRAS-G12D; assay type: biochemical
Method in brief: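 Signal ratio (520/495 nm, excitation 340 nm) reports Bodipy-GDP retention on biotinylated RAS after SOS-catalyzed exchange with 3 mM GTP. SOS was 40 nM, except 160 nM for G12V. Room-temperature exchange lasted 60 min (90 min for G12V), following a 60 min compound preincubation.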

KRAS-G12V = KRAS-G12V (Homo sapiens, UniProt P01116, G12V); test: SOS-catalyzed nucleotide exchange assay (Procedure A, TR-FRET), KRAS-G12V; assay type: biochemical
Method in brief: as §1

AsPC-1 cells = test: Cellular phospho-ERK assay, AsPC-1 cells (homozygous KRAS-G12D); assay type: cell-based; settings: Homo sapiens, read-out: AsPC1 pERK IC50
Method in brief: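 Cells seeded at 10,000-15,000 per well were incubated overnight, then exposed to compound for 2 hours at 37 °C in a 10-point, 1:3 series topping at 30 μM final. Lysates were assayed by Alpha SureFire Ultra multiplex for p-ERK and total ERK; IC50 came from a 4-parameter logistic fit of their ratio.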

[1] = nucleotide exchange, read-out: KRAS WT GNE IC50
[2] = nucleotide exchange, read-out: KRAS G12D GNE IC50
[3] = nucleotide exchange, read-out: KRAS G12V GNE IC50
[4] = ASPC1, 2 h, 2 hours compound incubation
[5] = KRAS WT GNE IC50, nucleotide exchange
[6] = KRAS G12D GNE IC50, nucleotide exchange
[7] = KRAS G12V GNE IC50, nucleotide exchange
[8] = ASPC1, 2 hours compound incubation

Chain of KRAS-WT (P01116 with tags, fused parts or gaps isoform P01116-2): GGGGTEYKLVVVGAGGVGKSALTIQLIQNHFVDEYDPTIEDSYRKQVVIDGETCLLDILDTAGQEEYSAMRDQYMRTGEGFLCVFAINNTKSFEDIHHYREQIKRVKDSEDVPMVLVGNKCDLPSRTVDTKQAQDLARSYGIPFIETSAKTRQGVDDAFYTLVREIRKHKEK
Chain of KRAS-G12D (P01116 with tags, fused parts or gaps isoform P01116-2 G12D): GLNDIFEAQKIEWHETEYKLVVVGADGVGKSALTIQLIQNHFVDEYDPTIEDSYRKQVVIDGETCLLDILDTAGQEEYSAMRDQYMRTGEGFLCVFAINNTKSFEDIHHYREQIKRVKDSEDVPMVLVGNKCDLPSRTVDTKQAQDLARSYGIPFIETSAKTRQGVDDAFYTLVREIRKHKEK
Chain of KRAS-G12V (P01116 with tags, fused parts or gaps isoform P01116-2 G12V): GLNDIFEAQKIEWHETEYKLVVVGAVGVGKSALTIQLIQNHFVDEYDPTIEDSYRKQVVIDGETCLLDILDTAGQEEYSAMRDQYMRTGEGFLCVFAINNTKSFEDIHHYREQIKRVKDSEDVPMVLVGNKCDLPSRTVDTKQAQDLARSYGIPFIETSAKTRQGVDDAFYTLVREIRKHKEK

Compound	IC50 (KRAS-WT; [1]) [nM]	IC50 (KRAS-G12D; [2]) [nM]	IC50 (KRAS-G12V; [3]) [nM]	IC50 (AsPC-1 cells; [4]) [nM]	IC50 (AsPC-1 cells; ASPC1, 2 h, KRAS-G12D, 2 hours) [nM]	IC50 (KRAS-WT; [5]) [nM]	IC50 (KRAS-G12D; [6]) [nM]	IC50 (KRAS-G12V; [7]) [nM]	IC50 (AsPC-1 cells; [8]) [nM]
C[C@@]1(O)COCCN(c2nc(OC[C@]3(CN4CC5(CCO5)C4)CC3(F)F)nc3sc4c(-c5c(C6(F)CC6)c(Cl)cc6[nH]ncc56)nccc4c23)C1 [Ex-265, (6S)-4-(2-(((R)-1-((1-oxa-6-azaspiro[3.3]heptan-6-yl)methyl)-2,2-difluorocyclopropyl)methoxy)-8-(6-chloro-5-(1-fluorocyclopropyl)-1H-indazol-4-yl)pyrido[4′,3′:4,5]thieno[2,3-d]pyrimidin-4-yl)-6-methyl-1,4-oxazepan-6-ol]	24.5	4.21	14.9	200	–	–	–	–	–
COC(=O)c1cc2[nH]ncc2c(-c2nccc3c2sc2nc(OC[C@@]45CCCN4C[C@H](F)C5)nc(N4CCOC[C@@](C)(O)C4)c23)c1C1CC1 [Ex-49, Methyl 5-cyclopropyl-4-(2-(((2R,7aS)-2-fluorotetrahydro-1H-pyrrolizin-7a(5H)-yl)methoxy)-4-((S)-6-hydroxy-6-methyl-1,4-oxazepan-4-yl)pyrido[4′,3′:4,5]thieno [2,3-d]pyrimidin-8-yl)-1H-indazole-6-carboxylate]	74.1	39.6	59.3	–	1930	–	–	–	–
C[C@@]1(O)COCCN(c2nc(OC[C@@]34CCCN3C[C@H](F)C4)nc3sc4c(-c5c(C(F)(F)F)c(C(F)F)cc6[nH]ncc56)nccc4c23)C1 [Ex-155, (6S)-4-(8-(6-(difluoromethyl)-5-(trifluoromethyl)-1H-indazol-4-yl)-2-(((2R,7aS)-2-fluorotetrahydro-1H-pyrrolizin-7a(5H)-yl)methoxy)pyrido[4′,3′:4,5]thieno[2,3-d]pyrimidin-4-yl)-6-methyl-1,4-oxazepan-6-ol]	350	158	211	927	–	–	–	–	–
C[C@@]1(O)COCCN(c2nc(OC[C@@]34CCCN3C[C@H](F)C4)nc3sc4c(-c5c6c(cc7[nH]ncc57)CCC6=C(F)F)nccc4c23)C1 [Ex-177, (6S)-4-(8-(5-(difluoro-methylene)-1,5,6,7-tetrahydrocyclopenta [f]indazo1-4-yl)-2-(((2R,7aS)-2-fluoro-tetrahydro-1H-pyr-rolizin-7a(5H)-yl)-methoxy)pyrido[4′,3′: 4,5]thieno[2,3-d]pyr-imidin-4-yl)-6-methyl-1,4-oxazepam-6-ol]	–	–	–	–	–	77.4	23.1	61.7	248
C[C@@]1(O)COCCN(c2nc(OC[C@]3(CN4C[C@H]5CCO[C@H]5C4)CC3(F)F)nc3sc4c(-c5c(C6(F)CC6)c(Cl)cc6[nH]ncc56)nccc4c23)C1 [Ex-254, (6S)-4-(8-(6-chloro-5-(1-fluorocyclopropyl)-1H-indazol-4-yl)-2-(((R)-2,2-difluoro-1-(((3aR,6aR)-hexahydro-5H-furo[2,3-c]pyrrol-5-yl)methyl)cyclopropyl)metho-xy)pyrido[4′,3′:4,5]thieno[2,3-d]pyrimidin-4-yl)-6-methyl-1,4-oxazepan-6-ol]	59.7	6.96	91.9	315	–	–	–	–	–
C[C@@]1(O)COCCN(c2nc(OC[C@@]34CCCN3C[C@H](F)C4)nc3sc4c(-c5c(C67CC(C6)C7)ccc6[nH]ncc56)nccc4c23)C1 [Ex-42, (6S)-4-(8-(5-(bicyclo[1.1.1]pentan-1-yl)-1H-indazol-4-yl)-2-(((2R,7aS)-2-fluorotetrahydro-1H-pyrrolizin-7a(5H)-yl)methoxy)pyrido[4′,3′:4,5]thi-eno[2,3-d]pyrimidin-4-yl)-6-methyl-1,4-oxazepan-6-ol]	286	135	144	–	1380	–	–	–	–
Cc1cccc(-c2nccc3c2sc2nc(OC[C@@]45CCCN4C[C@H](F)C5)nc(N4CCOC[C@@](C)(O)C4)c23)c1C [Ex-120, (S)-4-(8-(2,3-dimethylpheny1)-2-(((2R,7aS)-2-fluorotetrahydro-1H-pyrrolizin-7a(5H)-yl)methoxy)pyrido[4′,3′:4,5]thi-eno[2,3-d]pyrimidin-4-yl)-6-methyl-1,4-oxazepan-6-ol]	1080	403	269	–	2030	–	–	–	–
C[C@H]1CN(C[C@@]2(COc3nc(N4CCOC[C@@](C)(O)C4)c4c(n3)sc3c(-c5c(C6(F)CC6)c(Cl)cc6[nH]ncc56)nccc34)CC2(F)F)CCO1 [Ex-244, (6S)-4-(8-(6-chloro-5-(1-fluorocyclopropyl)-1H-indazol-4-yl)-2-(((R)-2,2-difluoro-1-(((S)-2-methylmorpholino)methyl)cy-clopropyl)methoxy)pyrido[4′, 3′:4,5]thieno[2,3-d]pyrimidin-4-yl)-6-methyl-1,4-oxazepan-6-ol]	699	140	207	711	–	–	–	–	–
C[C@@]1(O)COCCN(c2nc(OC[C@@]34CCCN3C[C@H](F)C4)nc3sc4c(-c5cc(O)cc(Cl)c5C5CC5)nccc4c23)C1 [Ex-124, (S)-4-(8-(3-chloro-2-cyclopropyl-5-hydroxyphenyl)-2-(((2R,7aS)-2-fluorotetrahydro-1H-pyrrolizin-7a(5H)-yl)methoxy)pyri-do[4′,3′:4,5]thieno[2,3-d]pyrimidin-4-yl)-6-methyl-1,4-oxazepan-6-ol]	39.4	11.1	24.1	–	151	–	–	–	–
F[C@H]1CN2CCC[C@@]2(COc2nc(N3CCCOCC3)c3c(n2)sc2c(-c4c(C5CC5)c(Cl)cc5[nH]ncc45)nncc23)C1 [Ex-286]	52	205	50.3	–	1110	–	–	–	–
C[C@@]1(O)COCCN(c2nc(OC[C@]3(CN4CCOC5(CC5)C4)CC3(F)F)nc3sc4c(-c5c(C6(F)CC6)c(Cl)cc6[nH]ncc56)nccc4c23)C1 [Ex-264, (6S)-4-(2-(((R)-1-((4-oxa-7-azaspiro[2.5]octan-7-yl)methyl)-2,2-difluorocyclopropyl)methoxy)-8-(6-chloro-5-(1-fluorocyclopropyl)-1H-indazol-4-yl)pyrido[4′,3′:4,5]thieno[2,3-d]pyrimidin-4-yl)-6-methyl-1,4-oxazepan-6-ol]	351	63.9	215	618	–	–	–	–	–
Cc1cc2[nH]ncc2c(-c2nccc3c2sc2nc(OC[C@@]45CCCN4C[C@H](F)C5)nc(N4CCOC[C@@](C)(O)C4)c23)c1SC(F)(F)F [Ex-45, (6S)-4-(2-(((2R,7aS)-2-fluorotetrahydro-1H-pyrrolizin-7a(5H)-yl)methoxy)-8-(6-methyl-5-((trifluoromethyl)thio)-1H-indazol-4-yl)pyrido[4′,3′:4,5]thieno [2,3-d]pyrimidin-4-yl)-6-methyl-1,4-oxazepan-6-ol]	374	167	153	–	1110	–	–	–	–
C[C@@]1(O)COCCN(c2nc(OC[C@@]34CCCN3C[C@H](F)C4)nc3sc4c(-c5c6cc(F)ccc6cc6[nH]ncc56)nccc4c23)C1 [Ex-172, (6S)-4-(8-(6-fluoro-1H-benzo[f]indazol-4-yl)-2-(((2R,7aS)-2-fluorotetrahydro-1H-pyrrolizin-7a(5H)-yl)-methoxy)pyrido[4′,3′: 4,5]thieno[2,3-d]pyr-imidin-4-yl)-6-methyl-1,4-oxazepam-6-ol]	–	–	–	–	–	72.4	34.1	49.2	252

Reference: patent US20260176289A1, “SMALL MOLECULE INHIBITORS OF KRAS PROTEINS” (Merck Sharp & Dohme LLC, priority 2022, published 2026)
